From US20260374739A1, “SMALL MOLECULAR WEIGHT CHEMICAL COMPOUND TO ANTAGONIZE EPH-EPHRIN TETRAMERIZATION AND INHIBIT BIDIRECTIONAL SIGNALING” (THE BOARD OF REGENTS OF THE UNIVERSITY OF TEXAS SYSTEM, priority 2022, published 2026)
Values joined by “and” are separate entries in the source; they are usually repeats but may differ in a detail not shown here. Equal values may be shown once. Read-outs that look alike come from different tables or passages of the source.

How the values were obtained:
[1] = molecular target: T1, EphA3-EphrinA1 (Homo sapiens, UniProt P29320); test: Octet, immobilized human EphA3 binding to human EphrinA1; details: for IC50: immobilized human EphA3, 50 nM soluble human EphrinA1
T1 sequence (P29320 21-541 limits assumed): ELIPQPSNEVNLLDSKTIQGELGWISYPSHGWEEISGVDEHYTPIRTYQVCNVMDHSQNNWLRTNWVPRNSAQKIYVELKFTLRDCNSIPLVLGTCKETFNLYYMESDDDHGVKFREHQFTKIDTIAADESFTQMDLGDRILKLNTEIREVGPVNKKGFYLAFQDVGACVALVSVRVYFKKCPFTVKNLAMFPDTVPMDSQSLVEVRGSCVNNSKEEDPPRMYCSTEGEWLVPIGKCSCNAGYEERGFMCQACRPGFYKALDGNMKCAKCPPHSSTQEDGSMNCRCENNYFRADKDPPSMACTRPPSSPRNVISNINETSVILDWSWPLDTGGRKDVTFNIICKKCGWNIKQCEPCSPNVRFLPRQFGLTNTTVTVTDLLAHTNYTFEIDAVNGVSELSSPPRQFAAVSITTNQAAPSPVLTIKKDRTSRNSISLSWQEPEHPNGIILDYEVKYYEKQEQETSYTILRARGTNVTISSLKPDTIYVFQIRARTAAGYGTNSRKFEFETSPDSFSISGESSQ
Experimental: The Octet system was used to probe the interactions of epitope-tagged human A class proteins, focusing on immobilized EphA3 binding to two of its cognate ligands, EphrinA1 and EphrinA5, as well as EphB2 binding to EphrinA5 (FIG. 27). […] Focusing on the dimerization-driven EphA3-EA5 interaction first (green sensorgram trace), which mimics what is disclosed above for EphB4-EB2, the initial binding of soluble EphrinA5 to the immobilized EphA3 is very fast and strong with a long and steep 84° slope of response that then quickly bends around 35 sec into the association step to form a more gradual tetramerization accumulation slope. […] However, again like the EphB4-EB2 interaction, once placed into dissociation, a significant fraction of the bound EA5 protein melts quickly and the off phase continues downward with a slow gradual decline in bound protein. Although the dissociation was for only 500 sec, the continued downward slope of the response indicates most of the bound EA5 protein would eventually melt off of the immobilized EphA3 protein. This is referred to as a classic dimerization-driven interaction, fast and strong initial binding in the association step but with most of the bound protein coming off in the dissociation due to lack of formation of stable tetramers. EphA3 interacts with EphrinA1 with totally different kinetics/dynamics (orange sensorgram trace). Here, the initial high 84° dimerization slope phase is extremely brief (5 sec) with the binding quickly snapping into a linear tetramerization accumulation phase with a 25° slope, and that once placed into dissociation step almost no bound protein melts, just the small amount that would represent dimer interactions falling off in the first few seconds after being placed into dissociation. […] EphB2 interacting with EA5 is similar to the EphA3-EA1 interaction, in that the association step is characterized by a very brief (5 sec) high 84° slope phase that quickly bends into a more gradual tetramer accumulation phase (blue sensorgram trace). […] The strong initial off phase of the EphB2-EA5 complexes in the dissociation represents both the melting of weak dimers and of the relatively weaker affinity tetramers formed by the cross A/B class EphB2-EA5 molecules.
While there is no effect of A20 on the initial 5 sec fast EphA3-EA1 dimer phase, there is a very strong effect of compound on tetramer accumulation. It was estimated that >70% of the EphA3-EA1 binding interaction can be attributed to the tetramer which is effectively disrupted by compound, with very little binding activity attributed to the dimer and more accurately the dimerization:tetramerization ratio of this interaction is 10:90 not 30:70. […] Since this is a dimerization-driven type interaction (dimerization:tetramerization ratio of here is 72:28), the overall effect of compound on this interaction is muted.

[2] = molecular target: T2, EphB1-EphrinB2 (EB2) (Rattus norvegicus, UniProt P09759); test: Alpha assay EphB1-EphrinB2 (EB2) interaction; format: binding, mouse EB2
T2 construct: rat EphB1-Fc residues 18-538; mouse EB2-His residues 18-232; purchased R&D Systems (EphB1-Fc); Sino Biologicals (EB2-His)
T2 sequence (P09759 18-538): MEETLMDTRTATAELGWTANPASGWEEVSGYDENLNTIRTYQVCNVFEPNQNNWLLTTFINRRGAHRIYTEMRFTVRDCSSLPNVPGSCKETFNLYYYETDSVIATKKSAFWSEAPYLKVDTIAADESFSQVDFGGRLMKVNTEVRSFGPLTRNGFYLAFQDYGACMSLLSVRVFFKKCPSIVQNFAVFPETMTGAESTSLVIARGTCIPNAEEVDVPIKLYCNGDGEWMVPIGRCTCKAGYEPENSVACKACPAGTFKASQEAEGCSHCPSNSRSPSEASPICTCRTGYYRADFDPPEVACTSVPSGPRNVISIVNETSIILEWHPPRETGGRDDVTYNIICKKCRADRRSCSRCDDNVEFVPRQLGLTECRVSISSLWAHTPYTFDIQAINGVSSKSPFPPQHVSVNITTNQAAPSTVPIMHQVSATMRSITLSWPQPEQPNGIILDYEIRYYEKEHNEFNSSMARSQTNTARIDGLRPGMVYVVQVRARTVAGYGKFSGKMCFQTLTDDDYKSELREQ
From the text: A chemiluminescent AlphaScreen™ bead-based proximity assay suitable for HTS was developed to measure the receptor-ligand interaction formed between EphB1 and EphrinB2 (EB2) ectodomains (FIG. 3). Here, when singlet oxygen molecules generated by high energy irradiation of donor beads travel over a constrained distance to excite acceptor beads, a chemiluminescent signal is generated and detected. If an analyte interferes with the EphB1-EB2 protein-protein interaction, close proximity of the donor and acceptor beads will be disrupted resulting in diminished or lost energy transfer and reduced acceptor bead emission.
Test was conducted in the Alpha assay, to see if purified soluble Reelin (previously shown to bind EphB1 ectodomain) can interfere with EphB1-EB2 binding.
The EphB1-EB2 screen was conducted using 0.8 nM of each protein, 50 ng beads per well, and assessed at 5 μM a library of −240,000 small, drug-like chemicals. […] They were also tested in a counter screen designed to identify non-specific compounds. Here, a single-protein Alpha assay was set up using a dual-tagged EphB2-His-Fc ectodomain protein that can bind both donor and acceptor beads to bring them into proximity. If a selected compound simply absorbs the chemiluminescent signal or interferes with bead function/binding or protein folding, it was hypothesized that it would also reduce signals in the single protein assay, and would consider it a false positive.

[3] = Human EphA3-EphrinA1, association, absolute, read-out: Absolute Association IC50
[4] = Human EphA3-EphrinA1, dissociation, absolute, read-out: Absolute Dissociation IC50
[5] = Relative Association IC50, Human EphA3-EphrinA1, association, relative
[6] = Relative Dissociation IC50, Human EphA3-EphrinA1, dissociation, relative
[7] = Absolute Association IC50, Human EphA3-EphrinA1, association, absolute
[8] = Human EphA3-EphrinA1, dissociation, relative, read-out: Relative Dissociation IC50
[9] = Human EphA3-EphrinA1, association, relative, read-out: Relative Association IC50

O=S1(=O)CCN(Cc2ccc(O)c3ncccc23)CC1 [Compound 15, 4-((8-hydroxyquinolin-1-ium-5-yl)methyl)thiomorpholin-4-ium 1,1-dioxide chloride]
IC50 [1, 3]: 100 µM | IC50 [1, 4]: 29.3 µM | IC50 [1, 5]: 12.3 µM | IC50 [1, 6]: 6 µM

Oc1ccc(CN2CCN(c3ccc(F)cc3F)CC2)c2cccnc12 [Compound 62, 5-((4-(2,4-difluorophenyl)piperazin-1-yl)methyl)quinolin-8-ol]
antagonism of EphB1-EB2 [2]: some inhibitory activity though it was not apparent until higher concentrations

COc1ccccc1N1CCN(Cc2cc(Br)c(O)c3ncccc23)CC1 [Compound 70, 7-bromo-5-((4-(2-methoxyphenyl)piperazin-1-yl)methyl)quinolin-8-ol]
antagonism of EphB1-EB2 [2]: may be as effective as A20 at antagonizing EphB1-EB2 and EphB2-EB2 interactions

Oc1c(Br)cc(CN2CCOCC2)c2cccnc12 [Compound 5, 7-bromo-5-(morpholinomethyl)quinolin-8-ol]
inhibition at 1 µM ([1]; 1 μM, read-out: tetramers lost): ~50% | loss of tetramer formation ([1]; 100 μM): near complete loss of tetramer formation

Oc1c(Cl)cc(CN2CCOCC2)c2cccnc12 [Compound 4, 4-((7-chloro-8-hydroxyquinolin-1-ium-5-yl)methyl)morpholin-4-ium chloride]
IC50 [1, 7]: 1.84 µM | IC50 [1, 4]: 0.9 µM | IC50 [1, 8]: 0.9 µM | IC50 [1, 5]: 0.89 µM

Oc1c(I)cc(CN2CCOCC2)c2cccnc12 [Compound 8, 4-((8-hydroxy-7-iodoquinolin-1-ium-5-yl)methyl)morpholin-4-ium chloride]
IC50 [1, 3]: 0.45 µM and 1.45 µM | IC50 [1, 9]: 0.19 µM and 0.71 µM | IC50 [1, 4]: 1.2 µM and 1.52 µM | IC50 [1, 8]: 0.46 µM and 1.14 µM

Oc1c(CN2CCCCC2)cc(Cl)c2cccnc12 [Compound 76, 5-chloro-7-(piperidin-1-ylmethyl)quinolin-8-ol, reference compound]
antagonism of EphB1-EB2 [2]: did not exhibit any activity

Oc1ccc(CN2CCN(c3ccc(Br)cc3)CC2)c2cccnc12 [Compound 26, 5-((4-(4-bromophenyl)piperazin-1-yl)methyl)quinolin-8-ol]
antagonism of EphB1-EB2 [2]: strong dose-dependent antagonist activity

Oc1c(Br)cc(CN2CCOCC2)c2cccnc12 [Compound 6, 4-((7-bromo-8-hydroxyquinolin-1-ium-5-yl)methyl)morpholin-4-ium chloride]
IC50 [1, 4]: 1.99 µM | IC50 [1, 5]: 7.24 µM

Oc1ccc(CN2CCCCC2)c2cccnc12 [Compound 68, 5-(piperidin-1-ylmethyl)quinolin-8-ol, reference compound]
antagonism of EphB1-EB2 [2]: did not exhibit any activity

Oc1c(Cl)cc(CN2CCOCC2)c2cccnc12 [Compound 3, 7-chloro-5-(morpholinomethyl)quinolin-8-ol]
antagonism of EphB1-EB2 [2]: may be as effective as A20 at antagonizing EphB1-EB2 and EphB2-EB2 interactions

O=[N+]([O-])c1cc(CN2CCOCC2)c2cccnc2c1O [Compound 10, 4-((8-hydroxy-7-nitroquinolin-1-ium-5-yl)methyl)morpholin-4-ium chloride]
IC50 [1, 7]: 14 µM | IC50 ([1]; Absolute Dissociation IC50, Human EphA3-EphrinA1, dissociation, absolute): 6.3 µM | IC50 [1, 9]: 8.3 µM | IC50 [1, 8]: 4.23 µM

Oc1ccc(CN2CCN(Cc3ccc(C(F)(F)F)cc3)CC2)c2cccnc12 [Compound 48, 5-((4-(4-(trifluoromethyl)benzyl)piperazin-1-yl)methyl)quinolin-8-ol]
IC50 [1, 3]: 100 µM | IC50 [1, 9]: 100 µM | IC50 [1, 4]: 9.4 µM | IC50 [1, 6]: 5.3 µM

Oc1ccc(CN2CCOCC2)c2cccnc12 [Compound 1, 5-(morpholinomethyl)quinolin-8-ol]
IC50 [1, 3]: 8.24 µM | IC50 [1, 9]: 6.29 µM | IC50 [1, 4]: 6.73 µM | IC50 [1, 8]: 2.39 µM | antagonism of EphB1-EB2 [2]: some inhibitory activity though it was not apparent until higher concentrations

COCc1cc(CN2CCN(C)CC2)c(O)c2ncccc12 [Compound 77, 5-(methoxymethyl)-7-((4-methylpiperazin-1-yl)methyl)quinolin-8-ol, reference compound]
antagonism of EphB1-EB2 [2]: did not exhibit any activity
